Activity calls are given as the source filed them. The calls are words filed in the database; no cut-off is given here.
Test system: not listed separately
Assay: Therapeutic index, ratio of IC50 for human H9 cells to EC50 for HIV1
Format: cell-based
Conditions: read-out: Ratio IC50/EC50
`CCCc1cc(=O)oc2c3c(c4c(c12)OC(C)(C)C=C4)O[C@@H](C)[C@H](C)[C@@H]3O` [COSTATOLIDE] gave a selectivity ratio of 44.5. With `CCCc1cc(=O)oc2c3c(c4c(c12)OC(C)(C)C=C4)O[C@@H](C)[C@@H](C)[C@@H]3O` [CALANOLIDE F] the selectivity ratio was 4.5.

Test system: H9
Assay: Cytotoxicity against human H9 cells
Format: cell-based
Conditions: not given
Compound `CC1CC(=O)Oc2c(C(=O)C(C)C(C)O)c(O)c3c(c21)OC(C)(C)C=C3` (centres undefined) [CORDATOLIDE E] has an IC50 of 14 µM. `CCCc1cc(=O)oc2c3c(c4c(c12)OC(C)(C)C=C4)O[C@@H](C)[C@H](C)[C@@H]3O` [COSTATOLIDE] gave an IC50 of 9.8 µM. `CCCC1CC(=O)Oc2c(C(=O)C(C)C(C)O)c(O)c3c(c21)OC(C)(C)C=C3` (centres undefined) [CALANOLIDE E2] showed an IC50 of 2.5 µM. Work on `CCCc1cc(=O)oc2c3c(c4c(c12)OC(C)(C)C=C4)O[C@@H](C)[C@@H](C)[C@@H]3O` [CALANOLIDE F] yielded an IC50 of 12.7 µM. For `C/C=C(\C)C(=O)c1c(OC)cc(OC)c2c(CCC)cc(=O)oc12`, the IC50 was 1 µM. In the case of `Cc1cc(=O)oc2c3c(c4c(c12)O[C@@H](C)[C@@H](C)[C@H]4O)OC(C)(C)C=C3` [PSEUDOCARDATOLIDE C], the IC50 is reported as 2.6 µM.

Test system: Human immunodeficiency virus 1
Assay: Antiviral activity against HIV1 infected in human H9 cells assessed as effect on virus-induced cytopathic effect by tetrazolium/formazan assay
Format: functional, organism-based
Conditions: not given
In the case of `CC1CC(=O)Oc2c(C(=O)C(C)C(C)O)c(O)c3c(c21)OC(C)(C)C=C3` (centres undefined) [CORDATOLIDE E], the Activity is reported as “inactive”. In the case of `CCCC1CC(=O)Oc2c(C(=O)C(C)C(C)O)c(O)c3c(c21)OC(C)(C)C=C3` (centres undefined) [CALANOLIDE E2], the Activity is reported as “inactive”. For `C/C=C(\C)C(=O)c1c(OC)cc(OC)c2c(CCC)cc(=O)oc12`, the Activity was “inactive”. With `Cc1cc(=O)oc2c3c(c4c(c12)O[C@@H](C)[C@@H](C)[C@H]4O)OC(C)(C)C=C3` [PSEUDOCARDATOLIDE C] the Activity was “inactive”.

Same assay, conditions: Human immunodeficiency virus 1, H9
For `CCCc1cc(=O)oc2c3c(c4c(c12)OC(C)(C)C=C4)O[C@@H](C)[C@H](C)[C@@H]3O` [COSTATOLIDE], the EC50 was 220 nM. Compound `CCCc1cc(=O)oc2c3c(c4c(c12)OC(C)(C)C=C4)O[C@@H](C)[C@@H](C)[C@@H]3O` [CALANOLIDE F] has an EC50 of 2840 nM.

Reference: ChEMBL document CHEMBL1158273, “New pyranocoumarins isolated from Calophyllum lanigerum and Calophyllum teysmannii” (J Nat Prod, 1996)
